Source: US9527930B2, “FGF receptor-activating N-sulfate oligosaccharides, preparation thereof, and therapeutic use thereof” (priority 2009, dated 2016)

Molecular target: FGF-2 (Homo sapiens, UniProt P09038)
Test: in vitro cellular test of FGF-2 activation
Assay type: cell-based

FGF-2, sequence (P09038 143-288): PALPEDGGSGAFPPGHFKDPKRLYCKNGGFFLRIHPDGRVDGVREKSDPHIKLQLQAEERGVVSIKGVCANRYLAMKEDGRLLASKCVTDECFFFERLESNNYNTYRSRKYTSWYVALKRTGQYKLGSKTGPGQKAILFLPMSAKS

Sodium [methyl(sodium 2-O-sodium sulfonato-α-L-idopyranosyluronate)-(1→4)-(2-deoxy-6-O-sodium sulfonato-2-sodium (sulfonatoamino)-α-D-glucopyranosyl)-(1→4)-[(sodium 2-O-sodium sulfonato-α-L-idopyranosyluronate)-(1→4)-(2-deoxy-6-O-sodium sulfonato-2-sodium sulfonatoamino)-α-D-glucopyranos)-(1→4)]2-2-O-sodium sulfonato-α-L-idopyranoside]uronate [Compound 3]
FGF-2 activation compared with the hexasaccharide analogue (C. Tabeur et al.): better FGF-2 activators than the hexasaccharide analogue thereof
